pIC50: −log10 of the molar value.
How the values were obtained:
Test in all cases: cells
U-266 = format: functional, cell-based; conditions: Homo sapiens
Description: SANGER: Inhibition of human U-266 cell growth in a cell viability assay.

EW-18 = format: functional, cell-based; conditions: Homo sapiens;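 further: growth inhibition of EW-18 cells, read out by a cell viability assay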
Description: SANGER: Inhibition of human EW-18 cell growth in a cell viability assay.

NCI-H82 = format: functional, cell-based; conditions: Homo sapiens;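 further: growth inhibition of NCI-H82 cells, measured with a cell viability readout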
Description: SANGER: Inhibition of human NCI-H82 cell growth in a cell viability assay.

A704 = format: functional, cell-based, Homo sapiens; conditions: Homo sapiens, A704;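 further: growth inhibition of human A704 cells, read out with a cell viability assay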
Description: SANGER: Inhibition of human A704 cell growth in a cell viability assay.

KG-1 = format: functional, cell-based; conditions: Homo sapiens;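 further: growth inhibition of KG-1 cells, read out by a cell viability assay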
CAL-72 = format: functional, cell-based, Homo sapiens; conditions: Homo sapiens, CAL-72;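 further: cell viability assay measuring inhibition of proliferation in the CAL-72 cell line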
Description: SANGER: Inhibition of human CAL-72 cell growth in a cell viability assay.

A2058 = format: functional, cell-based; conditions: Homo sapiens;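 further: reduction of A2058 cell growth, read out with a viability assay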
Description: SANGER: Inhibition of human A2058 cell growth in a cell viability assay.

A673 = format: functional, cell-based, Homo sapiens; conditions: Homo sapiens, A673;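 further: growth inhibition of human A673 cells, read out through a cell viability assay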
Description: SANGER: Inhibition of human A673 cell growth in a cell viability assay.

SW756 = format: functional, cell-based, Homo sapiens; conditions: Homo sapiens, SW756;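 further: growth inhibition of human SW756 cells, read out with a cell viability assay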
Description: SANGER: Inhibition of human SW756 cell growth in a cell viability assay.

CWR22R = format: functional, cell-based, Homo sapiens; conditions: Homo sapiens, 22Rv1;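 further: growth inhibition of 22Rv1 cells, read out with a cell viability assay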
Description: SANGER: Inhibition of human 22RV1 cell growth in a cell viability assay.

RVH-421 = format: functional, cell-based, Homo sapiens; conditions: Homo sapiens, RVH-421
Description: SANGER: Inhibition of human RVH-421 cell growth in a cell viability assay.

NCI-H292 = format: functional, cell-based, Homo sapiens; conditions: Homo sapiens, NCI-H292;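 further: growth inhibition of NCI-H292 cells, read out with a cell viability assay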
Description: SANGER: Inhibition of human NCI-H292 cell growth in a cell viability assay.

MLMA = format: functional, cell-based, Homo sapiens; conditions: Homo sapiens, MLMA;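 further: growth inhibition of MLMA cells (human), determined through a cell viability readout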
Description: SANGER: Inhibition of human MLMA cell growth in a cell viability assay.

SW626 = format: functional, cell-based, Homo sapiens; conditions: Homo sapiens, SW626;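 further: growth inhibition of SW626 cells, measured with a cell viability assay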
Description: SANGER: Inhibition of human SW626 cell growth in a cell viability assay.

NCI-H1651 = format: functional, cell-based, Homo sapiens; conditions: Homo sapiens, NCI-H1651;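 further: Read-out is a cell viability assay, with IC50 expressing inhibition of NCI-H1651 cell growth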
Description: SANGER: Inhibition of human NCI-H1651 cell growth in a cell viability assay.

HC-1 = format: functional, cell-based; conditions: Homo sapiens;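 further: growth inhibition of HC-1 cells measured by a cell viability assay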
Description: SANGER: Inhibition of human HC-1 cell growth in a cell viability assay.

DMS-79 = format: functional, cell-based; conditions: Homo sapiens;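 further: growth inhibition measured with a cell viability assay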
Description: SANGER: Inhibition of human DMS-79 cell growth in a cell viability assay.

MDA-MB-453 = format: functional, cell-based, Homo sapiens; conditions: Homo sapiens, MDA-MB-453
Description: SANGER: Inhibition of human MDA-MB-453 cell growth in a cell viability assay.

8505C = format: functional, cell-based, Homo sapiens; conditions: Homo sapiens, 8505C
Description: SANGER: Inhibition of human 8505C cell growth in a cell viability assay.

MKN-45 = format: functional, cell-based, Homo sapiens; conditions: Homo sapiens, MKN-45;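 further: growth inhibition of human MKN-45 cells, measured with a cell viability assay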
639-V = format: functional, cell-based, Homo sapiens; conditions: Homo sapiens, 639-V;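 further: growth inhibition of 639-V cells, read out with a cell viability assay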
Description: SANGER: Inhibition of human 639-V cell growth in a cell viability assay.

D283 Med = format: functional, cell-based, Homo sapiens; conditions: Homo sapiens, D283 Med
Description: SANGER: Inhibition of human D-283MED cell growth in a cell viability assay.

NCI-H1623 = format: functional, cell-based, Homo sapiens; conditions: Homo sapiens, NCI-H1623;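 further: cell viability assay used as the read-out for growth inhibition of NCI-H1623 cells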
Description: SANGER: Inhibition of human NCI-H1623 cell growth in a cell viability assay.

SKG-IIIa = format: functional, cell-based, Homo sapiens; conditions: Homo sapiens, SKG-IIIa;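 further: cell growth inhibition, read out with a cell viability assay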
Description: SANGER: Inhibition of human SKG-IIIa cell growth in a cell viability assay.

SNU-C2B = format: functional, cell-based, Homo sapiens; conditions: Homo sapiens, SNU-C2B;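 further: cell viability readout used to measure compound-driven suppression of SNU-C2B cell proliferation, IC50 marking half-maximal growth inhibition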
Description: SANGER: Inhibition of human SNU-C2B cell growth in a cell viability assay.

Mo = format: functional, cell-based; conditions: Homo sapiens
Description: SANGER: Inhibition of human Mo-T cell growth in a cell viability assay.

AN3-CA = format: functional, cell-based; conditions: Homo sapiens;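 further: growth inhibition of human AN3-CA cells measured by a cell viability assay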
Description: SANGER: Inhibition of human AN3-CA cell growth in a cell viability assay.

RH-1 = format: functional, cell-based, Homo sapiens; conditions: Homo sapiens, RH-1;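 further: growth inhibition of human RH-1 cells, read out with a cell viability assay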
KARPAS-45 = format: functional, cell-based; conditions: Homo sapiens;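 further: inhibition of cell line growth, read out through a viability assay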
Description: SANGER: Inhibition of human KARPAS-45 cell growth in a cell viability assay.

GAK = format: functional, cell-based, Homo sapiens; conditions: Homo sapiens, GAK;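 further: cell growth inhibition read out by a cell viability assay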
Description: SANGER: Inhibition of human GAK cell growth in a cell viability assay.

NCI-H209 = format: functional, cell-based; conditions: Homo sapiens;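 further: growth inhibition of human NCI-H209 cells, measured by a cell viability assay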
Description: SANGER: Inhibition of human NCI-H209 cell growth in a cell viability assay.

Becker = format: functional, cell-based, Homo sapiens; conditions: Homo sapiens, Becker;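 further: growth inhibition of Becker cells, read out with a cell viability assay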
Description: SANGER: Inhibition of human Becker cell growth in a cell viability assay.

D-336MG = format: functional, cell-based, Homo sapiens; conditions: Homo sapiens, D-336MG
Description: SANGER: Inhibition of human D-336MG cell growth in a cell viability assay.

CAL-12T = format: functional, cell-based, Homo sapiens; conditions: Homo sapiens, CAL-12T;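 further: growth inhibition of human CAL-12T cells, read out with a cell viability assay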
Description: SANGER: Inhibition of human CAL-12T cell growth in a cell viability assay.

Daoy = format: functional, cell-based, Homo sapiens; conditions: Homo sapiens, Daoy;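 further: daoy cell growth inhibition, read out as cell viability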
Description: SANGER: Inhibition of human Daoy cell growth in a cell viability assay.

SK-MES-1 = format: functional, cell-based, Homo sapiens; conditions: Homo sapiens, SK-MES-1;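 further: growth inhibition of human SK-MES-1 cells, read out with a cell viability assay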
Description: SANGER: Inhibition of human SK-MES-1 cell growth in a cell viability assay.

KGN = format: functional, cell-based, Homo sapiens; conditions: Homo sapiens, KGN;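 further: growth inhibition of KGN cells, read out with a cell viability assay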
AM-38 = format: functional, cell-based, Homo sapiens; conditions: Homo sapiens, AM-38;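 further: growth inhibition of AM-38 cells of human origin, read out by a cell viability assay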
D-542MG = format: functional, cell-based, Homo sapiens; conditions: Homo sapiens, D-542MG
Description: SANGER: Inhibition of human D-542MG cell growth in a cell viability assay.

NCI-H747 = format: functional, cell-based; conditions: Homo sapiens;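 further: growth inhibition of human NCI-H747 cells, read out by a cell viability assay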
NMC-G1 = format: functional, cell-based, Homo sapiens; conditions: Homo sapiens, NMC-G1;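 further: growth inhibition of the NMC-G1 cell line, measured with a cell viability read-out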
Description: SANGER: Inhibition of human NMC-G1 cell growth in a cell viability assay.

MDA-MB-231 = format: functional, cell-based, Homo sapiens; conditions: Homo sapiens, MDA-MB-231
Description: SANGER: Inhibition of human MDA-MB-231 cell growth in a cell viability assay.

SF-126 = format: functional, cell-based, Homo sapiens; conditions: Homo sapiens, SF-126;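 further: growth inhibition of human SF126 cells, read out with a cell viability assay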
Description: SANGER: Inhibition of human SF126 cell growth in a cell viability assay.

PFSK-1 = format: functional, cell-based, Homo sapiens; conditions: Homo sapiens, PFSK-1;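 further: cell viability assay measuring how strongly compounds suppress growth of human PFSK-1 cells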
Description: SANGER: Inhibition of human PFSK-1 cell growth in a cell viability assay.

HuP-T3 = format: functional, cell-based, Homo sapiens; conditions: Homo sapiens, HuP-T3;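 further: HuP-T3 cell growth inhibition, read out with a cell viability assay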
Description: SANGER: Inhibition of human HuP-T3 cell growth in a cell viability assay.

Ramos-2G6-4C10 = format: functional, cell-based; conditions: Homo sapiens;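 further: growth inhibition of the cell line, measured by a cell viability read-out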
Description: SANGER: Inhibition of human Ramos-2G6-4C10 cell growth in a cell viability assay.

RERF-LC-MS = format: functional, cell-based, Homo sapiens; conditions: Homo sapiens, RERF-LC-MS;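 further: growth inhibition of human RERF-LC-MS cells, read out by a cell viability assay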
Description: SANGER: Inhibition of human RERF-LC-MS cell growth in a cell viability assay.

JVM-2 = format: functional, cell-based; conditions: Homo sapiens;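 further: growth inhibition of JVM-2 cells determined by a cell viability assay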
Description: SANGER: Inhibition of human JVM-2 cell growth in a cell viability assay.

NCI-H1304 = format: functional, cell-based; conditions: Homo sapiens;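 further: growth inhibition of the cancer cell line, measured in a cell viability assay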
Description: SANGER: Inhibition of human NCI-H1304 cell growth in a cell viability assay.

TE-12 = format: functional, cell-based; conditions: Homo sapiens;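 further: growth inhibition of TE-12 cells, read out by a cell viability assay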
Description: SANGER: Inhibition of human TE-12 cell growth in a cell viability assay.

MCF7 = format: functional, cell-based, Homo sapiens; conditions: Homo sapiens, MCF7;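 further: growth inhibition of human MCF7 cells, read out with a cell viability assay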
Description: SANGER: Inhibition of human MCF7 cell growth in a cell viability assay.

SN12C = format: functional, cell-based, Homo sapiens; conditions: Homo sapiens, SN12C;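 further: growth inhibition of human SN12C cells, measured by a cell viability assay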
Description: SANGER: Inhibition of human SN12C cell growth in a cell viability assay.

HCC2157 = format: functional, cell-based; conditions: Homo sapiens;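 further: growth inhibition of the cancer cell line, read out as cell viability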
Description: SANGER: Inhibition of human HCC2157 cell growth in a cell viability assay.

CC(=O)O[C@@]12CO[C@@H]1C[C@H](O)[C@@]1(C)C(=O)[C@H](O)C3=C(C)[C@@H](OC(=O)[C@H](O)[C@@H](NC(=O)OC(C)(C)C)c4ccccc4)C[C@@](O)([C@@H](OC(=O)c4ccccc4)[C@H]21)C3(C)C [DOCETAXEL]
pIC50 (U-266): 8.46
pIC50 (EW-18): < 8.00
pIC50 (NCI-H82): 8.09
pIC50 (A704): < 8.00
pIC50 (KG-1): < 8.00
pIC50 (CAL-72): < 8.00
pIC50 (A2058): 9.26
pIC50 (A673): 8.63
pIC50 (SW756): 8.67
pIC50 (CWR22R): 8.50
pIC50 (RVH-421): 8.34
pIC50 (NCI-H292): 9.80
pIC50 (MLMA): 8.45
pIC50 (SW626): 8.21
pIC50 (NCI-H1651): 8.27
pIC50 (HC-1): 8.18
pIC50 (DMS-79): < 8.00
pIC50 (MDA-MB-453): 8.35
pIC50 (8505C): 9.07
pIC50 (MKN-45): 8.34
pIC50 (639-V): 9.19
pIC50 (D283 Med): 8.20
pIC50 (NCI-H1623): 8.07
pIC50 (SKG-IIIa): 8.54
pIC50 (SNU-C2B): < 8.00
pIC50 (Mo): < 8.00
pIC50 (AN3-CA): 8.30
pIC50 (RH-1): 9.41
pIC50 (KARPAS-45): 8.19
pIC50 (GAK): < 8.00
pIC50 (NCI-H209): 8.54
pIC50 (Becker): 8.74
pIC50 (D-336MG): 8.77
pIC50 (CAL-12T): 8.42
pIC50 (Daoy): 9.15
pIC50 (SK-MES-1): 8.63
pIC50 (KGN): 8.61
pIC50 (AM-38): < 8.00
pIC50 (D-542MG): < 8.00
pIC50 (NCI-H747): < 8.00
pIC50 (NMC-G1): 9.29
pIC50 (MDA-MB-231): 8.14
pIC50 (SF-126): 8.48
pIC50 (PFSK-1): 9.18
pIC50 (HuP-T3): < 8.00
pIC50 (Ramos-2G6-4C10): < 8.00
pIC50 (RERF-LC-MS): 8.95
pIC50 (JVM-2): < 8.00
pIC50 (NCI-H1304): < 8.00
pIC50 (TE-12): < 8.00
pIC50 (MCF7): 8.79
pIC50 (SN12C): 8.26

C[C@]1(O)C[C@@H](c2nc(-c3ccc4ccc(-c5ccccc5)nc4c3)c3c(N)nccn32)C1 [LINSITINIB]
pIC50 (U-266): < 5.59
pIC50 (EW-18): 6.57
pIC50 (NCI-H82): < 5.59
pIC50 (A704): < 5.59
pIC50 (KG-1): < 5.59
pIC50 (CAL-72): < 5.59
pIC50 (A2058): < 5.59
pIC50 (A673): < 5.59
pIC50 (SW756): < 5.59
pIC50 (CWR22R): < 5.59
pIC50 (RVH-421): < 5.59
pIC50 (NCI-H292): < 5.59
pIC50 (MLMA): < 5.59
pIC50 (SW626): < 5.59
pIC50 (HCC2157): < 5.59
pIC50 (NCI-H1651): < 5.59
pIC50 (HC-1): < 5.59
pIC50 (DMS-79): < 5.59
pIC50 (MDA-MB-453): < 5.59
pIC50 (8505C): < 5.59
pIC50 (MKN-45): < 5.59
pIC50 (639-V): < 5.59
pIC50 (D283 Med): < 5.59
pIC50 (NCI-H1623): < 5.59
pIC50 (SKG-IIIa): < 5.59
pIC50 (SNU-C2B): < 5.59
pIC50 (Mo): < 5.59
pIC50 (AN3-CA): < 5.59
pIC50 (RH-1): 6.13
pIC50 (KARPAS-45): < 5.59
pIC50 (GAK): < 5.59
pIC50 (NCI-H209): < 5.59
pIC50 (Becker): < 5.59
pIC50 (CAL-12T): < 5.59
pIC50 (Daoy): < 5.59
pIC50 (SK-MES-1): < 5.59
pIC50 (KGN): < 5.59
pIC50 (AM-38): < 5.59
pIC50 (D-542MG): < 5.59
pIC50 (NCI-H747): < 5.59
pIC50 (NMC-G1): < 5.59
pIC50 (MDA-MB-231): < 5.59
pIC50 (SF-126): < 5.59
pIC50 (PFSK-1): < 5.59
pIC50 (HuP-T3): < 5.59
pIC50 (Ramos-2G6-4C10): < 5.59
pIC50 (RERF-LC-MS): < 5.59
pIC50 (JVM-2): < 5.59
pIC50 (NCI-H1304): < 5.59
pIC50 (TE-12): 6.12
pIC50 (MCF7): < 5.59
pIC50 (SN12C): < 5.59

C=CCc1cccc(/C=N/NC(=O)CN2CCN(Cc3ccccc3)CC2)c1O [PAC-1]
pIC50 (U-266): < 5.59
pIC50 (EW-18): < 5.59
pIC50 (NCI-H82): < 5.59
pIC50 (A704): < 5.59
pIC50 (KG-1): < 5.59
pIC50 (CAL-72): < 5.59
pIC50 (A2058): < 5.59
pIC50 (A673): < 5.59
pIC50 (SW756): < 5.59
pIC50 (CWR22R): < 5.59
pIC50 (RVH-421): < 5.59
pIC50 (NCI-H292): < 5.59
pIC50 (MLMA): < 5.59
pIC50 (SW626): < 5.59
pIC50 (HCC2157): < 5.59
pIC50 (NCI-H1651): < 5.59
pIC50 (HC-1): 5.73
pIC50 (DMS-79): < 5.59
pIC50 (MDA-MB-453): < 5.59
pIC50 (8505C): < 5.59
pIC50 (MKN-45): < 5.59
pIC50 (639-V): < 5.59
pIC50 (D283 Med): < 5.59
pIC50 (NCI-H1623): < 5.59
pIC50 (SKG-IIIa): < 5.59
pIC50 (SNU-C2B): < 5.59
pIC50 (Mo): < 5.59
pIC50 (AN3-CA): < 5.59
pIC50 (RH-1): < 5.59
pIC50 (KARPAS-45): < 5.59
pIC50 (GAK): < 5.59
pIC50 (NCI-H209): < 5.59
pIC50 (Becker): < 5.59
pIC50 (CAL-12T): < 5.59
pIC50 (Daoy): 5.66
pIC50 (SK-MES-1): < 5.59
pIC50 (KGN): 5.67
pIC50 (AM-38): < 5.59
pIC50 (D-542MG): < 5.59
pIC50 (NCI-H747): < 5.59
pIC50 (NMC-G1): < 5.59
pIC50 (MDA-MB-231): < 5.59
pIC50 (SF-126): < 5.59
pIC50 (PFSK-1): < 5.59
pIC50 (HuP-T3): < 5.59
pIC50 (Ramos-2G6-4C10): < 5.59
pIC50 (RERF-LC-MS): < 5.59
pIC50 (JVM-2): < 5.59
pIC50 (NCI-H1304): < 5.59
pIC50 (TE-12): < 5.59
pIC50 (MCF7): < 5.59
pIC50 (SN12C): < 5.59

Cc1ccc(Nc2nccc(N(C)c3ccc4c(C)n(C)nc4c3)n2)cc1S(N)(=O)=O [PAZOPANIB]
pIC50 (U-266): < 5.10
pIC50 (EW-18): < 5.10
pIC50 (NCI-H82): < 5.10
pIC50 (A704): 5.80
pIC50 (KG-1): 6.14
pIC50 (CAL-72): 5.23
pIC50 (A2058): < 5.10
pIC50 (A673): < 5.10
pIC50 (SW756): < 5.10
pIC50 (CWR22R): < 5.10
pIC50 (RVH-421): < 5.10
pIC50 (NCI-H292): < 5.10
pIC50 (MLMA): < 5.10
pIC50 (SW626): < 5.10
pIC50 (HCC2157): < 5.10
pIC50 (NCI-H1651): < 5.10
pIC50 (HC-1): < 5.10
pIC50 (DMS-79): < 5.10
pIC50 (MDA-MB-453): < 5.10
pIC50 (8505C): < 5.10
pIC50 (MKN-45): < 5.10
pIC50 (639-V): < 5.10
pIC50 (D283 Med): < 5.10
pIC50 (NCI-H1623): < 5.10
pIC50 (SKG-IIIa): < 5.10
pIC50 (SNU-C2B): < 5.10
pIC50 (Mo): < 5.10
pIC50 (AN3-CA): 8.00
pIC50 (RH-1): < 5.10
pIC50 (KARPAS-45): < 5.10
pIC50 (NCI-H209): < 5.10
pIC50 (Becker): < 5.10
pIC50 (CAL-12T): < 5.10
pIC50 (Daoy): 5.32
pIC50 (SK-MES-1): 5.16
pIC50 (KGN): 5.39
pIC50 (AM-38): < 5.10
pIC50 (D-542MG): < 5.10
pIC50 (NCI-H747): < 5.10
pIC50 (NMC-G1): 5.18
pIC50 (MDA-MB-231): < 5.10
pIC50 (SF-126): 5.61
pIC50 (PFSK-1): < 5.10
pIC50 (HuP-T3): < 5.10
pIC50 (Ramos-2G6-4C10): < 5.10
pIC50 (RERF-LC-MS): < 5.10
pIC50 (JVM-2): < 5.10
pIC50 (NCI-H1304): < 5.10
pIC50 (TE-12): < 5.10
pIC50 (MCF7): < 5.10
pIC50 (SN12C): < 5.10
